According to US9518065B2, “IRAK inhibitors and uses thereof” (NIMBUS IRIS, INC., priority 2013, dated 2016):
Read-outs that look alike come from different tables or passages of the source.

Assays:
[1] = test system: TNFα and IL8 production in THP-1 cells; assay: LPS induced cytokine (TNFα and IL8) production assay in THP-1 cells; type: cell-based; conditions: Homo sapiens, 300 ng/mL LPS
Method: Provided compounds were also assayed in an LPS (Lipopolysacharide) or R848 (TLR-7 agonist) induced cytokine (TNFα and IL8) production assay in THP-1 cells, human white blood cells (hWBC), and whole blood. The exemplary protocol for this assay in THP-1 cells was as follows below.
THP-1 cells from ATCC (TIB-202) were cultured in RPMI Medium 1640 (Invitrogen, Cat No. A10491-01), 10% fetal bovine serum (Invitrogen, Cat No. 10099141, Lot No. 8172882) containing 100 U/mL Penicillin, 100 μg/mL streptomycin (Invitrogen, Cat No. 15140-122), and 50 uM 2-Mercaptoethanol (Invitrogen, Cat No. 21985023). LPS-EK ultra pure (Invivogen, Cat No. tlrl-peklps) was used to induce IL8 and TNFα production, that was detected in the cell culture supernatant by IL8 HTRF kit (Cisbio, Cat No. 62IL8PEB) and TNFα HTRF kit (Cisbio, Cat No. 62TNFPEB), as per manufacturer instructions. Cells were cultured in 96 well assay plates at 100,000 cells per well, and compounds diluted in final 0.3% DMSO were pre-incubated with cells for 1 hour prior to stimulation with 300 ng/mL LPS. Cytokine production in cell supernatant was measured at 5 hours for TNFα and IL8 production, and for 16 hours for IL8 production and assessment of cell viability.
The compound numbers correspond to the compound numbers in Table 1. […] “NA” stands for “not assayed.”

[2] = biological target: T1, IRAK4 (Homo sapiens, UniProt Q9NWZ3); assay: IRAK-4 activity inhibition assay (Caliper); type: biochemical; conditions: 3.5 nM IRAK4, 37 μM ATP, 1.5 μM Peptide 8
T1 construct: purchased CARNA Bioscience 09-145
T1 sequence (Q9NWZ3 1-460): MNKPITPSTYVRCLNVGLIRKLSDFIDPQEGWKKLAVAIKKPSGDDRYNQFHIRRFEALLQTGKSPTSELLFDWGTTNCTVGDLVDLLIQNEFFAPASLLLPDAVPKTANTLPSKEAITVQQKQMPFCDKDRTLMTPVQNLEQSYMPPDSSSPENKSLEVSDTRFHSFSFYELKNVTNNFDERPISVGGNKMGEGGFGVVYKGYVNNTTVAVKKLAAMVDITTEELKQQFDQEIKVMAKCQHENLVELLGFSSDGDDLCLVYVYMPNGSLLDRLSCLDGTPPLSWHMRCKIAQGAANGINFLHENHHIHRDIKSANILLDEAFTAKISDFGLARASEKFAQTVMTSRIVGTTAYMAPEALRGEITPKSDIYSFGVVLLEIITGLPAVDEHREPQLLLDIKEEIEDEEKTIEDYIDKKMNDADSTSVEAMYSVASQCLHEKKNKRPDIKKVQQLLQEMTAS
Method: A 1× kinase base buffer was prepared from 50 mM HEPES, pH 7.5 and 0.0015% Brij-35. A stop buffer was prepared from 100 mM HEPES, pH 7.5, 0.015% Brij-35, 0.2% Coating Reagent #3, and 50 mM EDTA.
Test compound was diluted to 50× of the final desired highest inhibitor concentration in reaction by 100% DMSO. 100 ul of this compound dilution was transferred to a well in a 96-well plate. For example, if desired highest inhibitor concentration in IC50 determination is 100 uM, then prepare 5000 uM of compound DMSO solution in this step.
Test compound was serially diluted by transferring 30 μl to 60 μl of 100% DMSO in the next well and so forth for a total of 10 concentrations. 100 μl of 100% DMSO was added to two empty wells for no compound control and no enzyme control in the same 96-well plate.
A new 96-well plate was marked as intermediate plate. 5 μl of compound serial dilution was transferred from source plate to the corresponding wells of the intermediate plate. 45 μl of 1× kinase base buffer (KB buffer) was added to each well of the intermediate plate. The intermediate plate was placed for 10 min on a shaker.
5 μl of each well was transferred from the 96-well intermediate plate to a 384-well plate in duplicates. For example, A1 of the 96-well plate is transferred to A1 and A2 of the 384-well plate. A2 of the 96-well plate is transferred to A3 and A4 of the 384-well plate, and so on.
IRAK4 and DTT in 1× kinase base buffer was added. The 2.5× enzyme mix contained 8.8 nM IRAK4 and 5 mM DTT.
Peptide 8, ATP, MgCl2 and MnCl2 were added in the 1× kinase base buffer. The 2.5× peptide mix contained 3.75 μM peptide 8, 92.5 μM ATP, 12.5 mM MgCl2 and 2.5 mM MnCl2.
Assay plate already contained 5 μl of compound in 10% DMSO. Added 10 μl of 2.5× enzyme solution to each well of the 384-well assay plate, except no enzyme control wells. The final concentration of IRAK4 in reaction was 3.5 nM. Added 10 μl of 1× kinase base buffer to no enzyme control wells in the assay plate. Incubated at room temperature for 10 min.
Added 10 μl of 2.5× peptide solution to each well of the 384-well assay plate. The final concentration of Peptide 8 and ATP was 1.5 μM and 37 μM, respectively. Incubated at 28° C. for 40 minutes. Added 25 μl of stop buffer to stop reaction. Collected data on Caliper.
Copied conversion % data from Caliper program. Converted conversion % values to percent inhibition values. Percent inhibition=(max-conversion %)/(max-min)*100, where “max” means the conversion % of DMSO control and “min” means the conversion % of no enzyme control.
The compound numbers correspond to the compound numbers in Table 1. Compounds having an activity designated as “A” provided an IC50≦1 μM; compounds having an activity designated as “B” provided an IC50 of 1-5 μM; compounds having an activity designated as “C” provided an IC50 of ≧5 μM. “NA” stands for “not assayed.”

[3] = 5 hours, read-out: TNFα production IC50
[4] = 16 hours, read-out: IL8 (16 h) production IC50

SMILES	IC50 [1, 3]	IC50 [1, 4]	IC50 [2]
CCc1nc2c(N[C@H]3CC[C@H](N4CCC5(CC4)CC5)CC3)nc(Nc3cnn(C4CCOCC4)c3)nc2s1 [Compound I-23, N7-((1r,4r)-4-(6-azaspiro[2.5]octan-6-yl)cyclohexyl)-2-ethyl-N5-(1-(tetrahydro-2H-pyran-4-yl)-1H-pyrazol-4-yl)thiazolo[5,4-d]pyrimidine-5,7-diamine]	250 to 500 nM	≤ 250 nM	≤ 1000 nM
Cc1nc2c(N[C@H]3CC[C@H](N4CCOCC4)CC3)nc(Nc3cnn(C4CCOCC4)c3)nc2s1 [Compound I-25, 2-methyl-N7-((1r,4r)-4-morpholinocyclohexyl)-N5-(1-(tetrahydro-2H-pyran-4-yl)-1H-pyrazol-4-yl)thiazolo[5,4-d]pyrimidine-5,7-diamine]	≤ 250 nM	≤ 250 nM	≤ 1000 nM
CCc1nc2c(O[C@H]3CC[C@H](N4CCOCC4)CC3)nc(Nc3cnn(C4CCOCC4)c3)nc2s1 [Compound I-26, 2-ethyl-7-(((1r,4r)-4-morpholinocyclohexyl)oxy)-N-(1-(tetrahydro-2H-pyran-4-yl)-1H-pyrazol-4-yl)thiazolo[5,4-d]pyrimidin-5-amine]	≤ 250 nM	≤ 250 nM	≤ 1000 nM
Cc1nc2c(N[C@H]3CC[C@H](N4CCC(O)CC4)CC3)nc(Nc3cnn(C)c3)nc2s1 [Compound I-30, 1-((1r,4r)-4-((2-methyl-5-((1-methyl-1H-pyrazol-4-yl)amino)thiazolo[5,4-d]pyrimidin-7-yl)amino)cyclohexyl)piperidin-4-ol]	≥ 500 nM	–	≤ 1000 nM
CCc1nc2c(N[C@H]3CC[C@H](N4CCOCC4)CC3)nc(Nc3cnn(C4CCC(O)CC4)c3)nc2s1 (some centres unmarked) [Compound I-32, 4-(4-((2-ethyl-7-(((1r,4r)-4-morpholinocyclohexyl)-amino)thiazolo[5,4-d]pyrimidin-5-yl)amino)-1H-pyrazol-1-yl)cyclohexan-1-ol]	≤ 250 nM	≤ 250 nM	≤ 1000 nM
CCc1nc2c(N[C@H]3CC[C@H](N4CCC5(CC4)CC5)CC3)nc(Nc3cnn(CCOCCO)c3)nc2s1 [Compound I-33, 2-(2-(4-((7-(((1r,4r)-4-(6-azaspiro[2.5]octan-6-yl)cyclohexyl)-amino)-2-ethylthiazolo[5,4-d]pyrimidin-5-yl)amino)-1H-pyrazol-1-yl)ethoxy)ethan-1-ol]	≤ 250 nM	≤ 250 nM	≤ 1000 nM
Cc1nc2c(N[C@H]3CC[C@H](N4CCC5(CC4)CC5)CC3)nc(Nc3cnn(C)c3)nc2s1 [Compound I-39, N7-((1r,4r)-4-(6-azaspiro[2.5]octan-6-yl)cyclohexyl)-2-methyl-N5-(1-methyl-1H-pyrazol-4-yl)thiazolo[5,4-d]pyrimidine-5,7-diamine]	250 to 500 nM	250 to 500 nM	≤ 1000 nM

The remaining lines, values ahead:

IC50 [1, 3]	IC50 [1, 4]	IC50 [2]	SMILES
250 to 500 nM	≤ 250 nM	≤ 1000 nM	CCc1nc2c(N[C@H]3CC[C@H](N4CCOCC4)CC3)nc(Nc3cnn(CCCS(C)(=O)=O)c3)nc2s1 [Compound I-27, 2-ethyl-N5-(1-(3-(methylsulfonyl)propyl)-1H-pyrazol-4-yl)-N7-((1r,4r)-4-morpholinocyclohexyl)thiazolo[5,4-d]pyrimidine-5,7-diamine]
250 to 500 nM	≤ 250 nM	≤ 1000 nM	CCc1nc2c(N[C@H]3CC[C@H](N4CCOCC4)CC3)nc(Nc3cnn(CCOCCO)c3)nc2s1 [Compound I-28, 2-(2-(4-((2-ethyl-7-(((1r,4r)-4-morpholinocyclohexyl)amino)thia-zolo[5,4-d]pyrimidin-5-yl)amino)-1H-pyrazol-1-yl)ethoxy)ethan-1-ol]
≥ 500 nM	≤ 250 nM	≤ 1000 nM	CCc1nc2c(N[C@H]3CC[C@H](N4CCOCC4)CC3)nc(Nc3cnn(CCO)c3)nc2s1 [Compound I-29, 2-(4-((2-ethyl-7-(((1r,4r)-4-morpholinocyclohexyl)-amino)thiazolo[5,4-d]pyrimidin-5-yl)amino)-1H-pyrazol-1-yl)ethan-1-ol]
≤ 250 nM	≤ 250 nM	≤ 1000 nM	CCc1nc2c(N[C@H]3CC[C@H](N4CCOCC4)CC3)nc(Nc3cnn(CCOC)c3)nc2s1 [Compound I-34, 2-ethyl-N5-(1-(2-methoxyethyl)-1H-pyrazol-4-yl)-N7-((1r,4r)-4-morpholinocyclohexyl)thiazolo[5,4-d]pyrimidine-5,7-diamine]
≥ 500 nM	≥ 500 nM	≤ 1000 nM	CC(O)c1nc2c(N[C@H]3CC[C@H](N4CCOCC4)CC3)nc(Nc3cnn(C)c3)nc2s1 (some centres unmarked) [Compound I-35, 1-(5-((1-methyl-1H-pyrazol-4-yl)amino)-7-(((1r,4r)-4-morpholino-cyclohexyl)amino)thiazolo[5,4-d]pyrimidin-2-yl)ethan-1-ol]
250 to 500 nM	≤ 250 nM	≤ 1000 nM	CCn1cc(Nc2nc(N[C@H]3CC[C@H](N4CCOCC4)CC3)c3nc(C)sc3n2)cn1 [Compound I-36, N5-(1-ethyl-1H-pyrazol-4-yl)-2-methyl-N7-((1r,4r)-4-morpholinocyclohexyl)thiazolo[5,4-d]pyrimidine-5,7-diamine]
≥ 500 nM	≥ 500 nM	≤ 1000 nM	Cn1cc(Nc2nc(N[C@H]3CC[C@H](N4CCOCC4)CC3)c3nc(CO)sc3n2)cn1 [Compound I-37, (5-((1-methyl-1H-pyrazol-4-yl)amino)-7-(((1r,4r)-4-morpholino-cyclohexyl)amino)thiazolo[5,4-d]pyrimidin-2-yl)methanol]
≥ 500 nM	250 to 500 nM	≤ 1000 nM	Cc1nc2c(N[C@H]3CC[C@H](N4CCOCC4)CC3)nc(Nc3cnn(CCCS(C)(=O)=O)c3)nc2s1 [Compound I-38, 2-methyl-N5-(1-(3-(methylsulfonyl)propyl)-1H-pyrazol-4-yl)-N7-((1r,4r)-4-morpholinocyclohexyl)thiazolo[5,4-d]pyrimidine-5,7-diamine]
≤ 250 nM	250 to 500 nM	≤ 1000 nM	Cc1nc2c(N[C@H]3CC[C@H](N4CCOCC4)CC3)nc(Nc3cnn(CCS(C)(=O)=O)c3)nc2s1 [Compound I-40, 2-methyl-N5-(1-(2-(methylsulfonyl)ethyl)-1H-pyrazol-4-yl)-N7-((1r,4r)-4-morpholinocyclohexyl)thiazolo[5,4-d]pyrimidine-5,7-diamine]
